Drawing on US10150760B2, “Compounds for use in preparing heterocyclic triazole agonists of the APJ receptor” (AMGEN INC., priority 2016, dated 2018), this text covers EC50 for twelve molecules.

Each structure is given as a SMILES string.

Chain of human APJ receptor (P35414 whole entry): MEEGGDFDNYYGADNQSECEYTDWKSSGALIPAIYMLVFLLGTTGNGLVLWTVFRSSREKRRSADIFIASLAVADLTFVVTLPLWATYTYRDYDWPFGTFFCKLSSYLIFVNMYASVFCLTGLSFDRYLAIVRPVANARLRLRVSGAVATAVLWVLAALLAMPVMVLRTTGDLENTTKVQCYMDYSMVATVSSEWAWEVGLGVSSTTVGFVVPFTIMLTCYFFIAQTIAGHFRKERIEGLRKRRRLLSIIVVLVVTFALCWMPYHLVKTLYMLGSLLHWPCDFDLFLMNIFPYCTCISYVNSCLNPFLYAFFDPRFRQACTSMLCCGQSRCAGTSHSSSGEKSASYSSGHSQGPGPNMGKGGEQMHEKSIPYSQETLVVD

The assay addresses human APJ receptor (Homo sapiens (Human), UniProt P35414). As to the kind of experiment: [35S]GTPγS binding assay on membranes from CHO cells stably expressing human APJ receptor. The format is biochemical. The conditions noted are these: read-out: Activity hAPJ SPA EC50 IP. The method in brief: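 Agonist-driven [35S]GTPγS (0.2 nM) binding was measured over 90 min at room temperature on human APJ-expressing CHO membranes with bead capture, in buffer containing 3 μM GDP, 200 mM NaCl and 5 mM MgCl2 (pH 7.5). Excess unlabelled GTPγS (100 μM) gave nonspecific signal; EC50 from non-linear fits.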
On the technique in general: GTPγS is a poorly hydrolysed GTP analogue; its binding reports G protein activation.
`COc1cccc(OC)c1-n1c(NS(=O)(=O)[C@@H](C)[C@@H](OC(C)C)c2ncc(Cl)cn2)nnc1[C@H]1CCC(=O)N1` (single isomer, unassigned) [Example 399.0, (1S,2S)-1-(5-chloro-2-pyrimidinyl)-N-(4-(2,6-dimethoxyphenyl)-5-((2R)-5-oxo-2-pyrrolidinyl)-4H-1,2,4-triazol-3-yl)-1-(2-propanyloxy)-2-propanesulfonamide or (1S,2S)-1-(5-chloro-2-pyrimidinyl)-N-(4-(2,6-dimethoxyphenyl)-5-((2S)-5-oxo-2-pyrrolidinyl)-4H-1,2,4-triazol-3-yl)-1-(2-propanyloxy)-2-propanesulfonamide]: the EC50 was 470 nM.
Then `COc1cccc(OC)c1-n1c(NS(=O)(=O)[C@@H](C)[C@@H](OC(C)C)c2ncc(Cl)cn2)nnc1[C@H]1CCC(=O)N1` (single isomer, unassigned) [Example 400.0, (1S,2S)-1-(5-chloro-2-pyrimidinyl)-N-(4-(2,6-dimethoxyphenyl)-5-((2R)-5-oxo-2-pyrrolidinyl)-4H-1,2,4-triazol-3-yl)-1-(2-propanyloxy)-2-propanesulfonamide or (1S,2S)-1-(5-chloro-2-pyrimidinyl)-N-(4-(2,6-dimethoxyphenyl)-5-((2S)-5-oxo-2-pyrrolidinyl)-4H-1,2,4-triazol-3-yl)-1-(2-propanyloxy)-2-propanesulfonamide], with 330 nM; and `CO[C@H](c1ncc(Cl)cn1)[C@H](C)S(=O)(=O)Nc1nnc([C@H]2CCOC2)n1Cc1ccon1` (single isomer, unassigned) [Example 401.0, (1R,2S)-1-(5-chloro-2-pyrimidinyl)-1-methoxy-N-(4-(1,2-oxazol-3-ylmethyl)-5-((3R)-tetrahydro-3-furanyl)-4H-1,2,4-triazol-3-yl)-2-propanesulfonamide or (1R,2S)-1-(5-chloro-2-pyrimidinyl)-1-methoxy-N-(4-(1,2-oxazol-3-ylmethyl)-5-((3S)-tetrahydro-3-furanyl)-4H-1,2,4-triazol-3-yl)-2-propanesulfonamide], with 100 nM.
Next, `CO[C@H](c1ncc(Cl)cn1)[C@H](C)S(=O)(=O)Nc1nnc([C@H]2CCOC2)n1Cc1ccon1` (single isomer, unassigned) [Example 402.0, (1R,2S)-1-(5-chloro-2-pyrimidinyl)-1-methoxy-N-(4-(1,2-oxazol-3-ylmethyl)-5-((3R)-tetrahydro-3-furanyl)-4H-1,2,4-triazol-3-yl)-2-propanesulfonamide or (1R,2S)-1-(5-chloro-2-pyrimidinyl)-1-methoxy-N-(4-(1,2-oxazol-3-ylmethyl)-5-((3S)-tetrahydro-3-furanyl)-4H-1,2,4-triazol-3-yl)-2-propanesulfonamide]: 410 nM.
Then `CO[C@H](c1ncc(Cl)cn1)[C@H](C)S(=O)(=O)Nc1nnc([C@@H]2CC[C@H](C)O2)n1Cc1ccon1` (single isomer, unassigned) [Example 403.0, (1R,2S)-1-(5-chloro-2-pyrimidinyl)-1-methoxy-N-(5-((2S,5S)-5-methyltetrahydro-2-furanyl)-4-(1,2-oxazol-3-ylmethyl)-4H-1,2,4-triazol-3-yl)-2-propanesulfonamide or (1R,2S)-1-(5-chloro-2-pyrimidinyl)-1-methoxy-N-(5-((2R,5R)-5-methyltetrahydro-2-furanyl)-4-(1,2-oxazol-3-ylmethyl)-4H-1,2,4-triazol-3-yl)-2-propanesulfonamide], with 280 nM; and `CO[C@H](c1ncc(Cl)cn1)[C@H](C)S(=O)(=O)Nc1nnc([C@@H]2CC[C@H](C)O2)n1Cc1ccon1` (single isomer, unassigned) [Example 404.0, (1R,2S)-1-(5-chloro-2-pyrimidinyl)-1-methoxy-N-(5-((2S,5S)-5-methyltetrahydro-2-furanyl)-4-(1,2-oxazol-3-ylmethyl)-4H-1,2,4-triazol-3-yl)-2-propanesulfonamide or (1R,2S)-1-(5-chloro-2-pyrimidinyl)-1-methoxy-N-(5-((2R,5R)-5-methyltetrahydro-2-furanyl)-4-(1,2-oxazol-3-ylmethyl)-4H-1,2,4-triazol-3-yl)-2-propanesulfonamide], with 81 nM; and `COc1cccc(OC)c1-n1c(NS(=O)(=O)[C@@H](C)[C@H](OC)c2ncc(Cl)cn2)nnc1[C@H]1CCC(=O)N1C` (single isomer, unassigned) [Example 405.0, (1R,2S)-1-(5-chloropyrimidin-2-yl)-N-(4-(2,6-dimethoxyphenyl)-5-((R)-1-methyl-5-oxopyrrolidin-2-yl)-4H-1,2,4-triazol-3-yl)-1-methoxypropane-2-sulfonamide or (1R,2S)-1-(5-chloropyrimidin-2-yl)-N-(4-(2,6-dimethoxyphenyl)-5-((S)-1-methyl-5-oxopyrrolidin-2-yl)-4H-1,2,4-triazol-3-yl)-1-methoxypropane-2-sulfonamide], with 1720 nM.
In the case of `COc1cccc(OC)c1-n1c(NS(=O)(=O)[C@@H](C)[C@H](OC)c2ncc(Cl)cn2)nnc1[C@H]1CCC(=O)N1C` (single isomer, unassigned) [Example 406.0, (1R,2S)-1-(5-chloropyrimidin-2-yl)-N-(4-(2,6-dimethoxyphenyl)-5-((R)-1-methyl-5-oxopyrrolidin-2-yl)-4H-1,2,4-triazol-3-yl)-1-methoxypropane-2-sulfonamide or (1R,2S)-1-(5-chloropyrimidin-2-yl)-N-(4-(2,6-dimethoxyphenyl)-5-((S)-1-methyl-5-oxopyrrolidin-2-yl)-4H-1,2,4-triazol-3-yl)-1-methoxypropane-2-sulfonamide], the EC50 amounted to 1080 nM.
Next, `COc1cccc(OC)c1-n1c(NS(=O)(=O)[C@@H](C)[C@@H](OC(C)C)c2ccc(C)cn2)nnc1[C@H]1CCOC1` (single isomer, unassigned) [Example 408.0, (1S,2S)-N-(4-(2,6-dimethoxyphenyl)-5-((3R)-tetrahydro-3-furanyl)-4H-1,2,4-triazol-3-yl)-1-(5-methyl-2-pyridinyl)-1-(2-propanyloxy)-2-propanesulfonamide or (1S,2S)-N-(4-(2,6-dimethoxyphenyl)-5-((3S)-tetrahydro-3-furanyl)-4H-1,2,4-triazol-3-yl)-1-(5-methyl-2-pyridinyl)-1-(2-propanyloxy)-2-propanesulfonamide]: 64 nM.
Then `COc1cccc(OC)c1-n1c(NS(=O)(=O)[C@@H](C)[C@H](C)c2ccc(Cl)cn2)nnc1C1CCOC1` (single isomer, unassigned) [Example 409.0], with 11 nM; and `COc1cccc(OC)c1-n1c(NS(=O)(=O)[C@@H](C)[C@H](C)c2ccc(Cl)cn2)nnc1C1CCOC1` (single isomer, unassigned) [Example 410.0], with 19 nM.
Then `COc1cccc(OC)c1-n1c(NS(=O)(=O)[C@@H](C)[C@@H](OC(C)C)c2ncc(C)cn2)nnc1[C@@H]1COC(C)(C)C1` (single isomer, unassigned) [Example 411.0, (1S,2S)-N-(4-(2,6-dimethoxyphenyl)-5-((3R)-5,5-dimethyltetrahydro-3-furanyl)-4H-1,2,4-triazol-3-yl)-1-(5-methyl-2-pyrimidinyl)-1-(2-propanyloxy)-2-propanesulfonamide or (1S,2S)-N-(4-(2,6-dimethoxyphenyl)-5-((3S)-5,5-dimethyltetrahydro-3-furanyl)-4H-1,2,4-triazol-3-yl)-1-(5-methyl-2-pyrimidinyl)-1-(2-propanyloxy)-2-propanesulfonamide], with 86 nM.

What is called EC50 is the midpoint of the concentration-response curve.
